Data on 21 compounds can be found in patent EP1984353B1, “AURORA KINASE MODULATORS AND METHOD OF USE” (Amgen, Inc, priority 2006, dated 2007).

Read-outs that look alike come from different tables or passages of the source.

Assay [1] deals with T1, AuroraA-TPX2 (Homo sapiens, UniProt O14965).
T1 construct: 20 µL of AuroraA-TPX2 KD GST; GST
T1 sequence (O14965 133-383 limits assumed): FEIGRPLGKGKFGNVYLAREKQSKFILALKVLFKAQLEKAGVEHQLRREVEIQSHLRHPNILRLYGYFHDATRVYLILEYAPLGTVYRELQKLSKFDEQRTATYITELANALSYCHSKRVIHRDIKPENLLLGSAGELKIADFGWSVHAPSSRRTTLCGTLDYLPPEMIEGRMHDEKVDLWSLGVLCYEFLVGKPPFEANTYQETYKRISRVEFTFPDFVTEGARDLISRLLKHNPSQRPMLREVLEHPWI
T1 sequence (Q9ULW0 1-43 partner limits assumed): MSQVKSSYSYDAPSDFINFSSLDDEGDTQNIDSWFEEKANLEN
Nature of the assay: AuroraA-TPX2 Homogeneous Time Resolved Fluorescent (HTRF) kinase assay. The note with it: average, read-out: AurA/TP X2_ IC50_IP (Avg). The class given is biochemical. The method in brief:
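Aurora-A/TPX2 phosphorylates biotinylated PLK peptide (about 1 µM) with ATP for about 120 min in 60 mM HEPES pH 7.5, 10 mM MgCl2, 2 mM DTT. EDTA quench, overnight equilibration with Eu-anti-phosphoPLK antibody and SA-APC; HTRF read at 615/655 nm after 320 nm excitation.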

Assay [2] concerns the target T2, AuroraB (Homo sapiens, UniProt Q96GD4).
T2 construct: 20 µL of AuroraB FL His; His
Briefly: AuroraB Homogeneous Time Resolved Fluorescent (HTRF) kinase assay. The class given is biochemical. The note with it: average, read-out: AurB_ _IC50_IP (Avg). An outline of the steps: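 Full-length His-tagged AuroraB (400 pM) phosphorylates 0.1 µM biotinylated Histone H3 with 23 µM ATP (Km(app)) in HEPES pH 7.5 with Mg/Mn, about 90 min. EDTA-quenched; Eu-anti-phosphoHistoneH3 and SA-APC HTRF, 655/615 nm ratio as phosphorylation.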
In general terms: Time-resolved FRET reads energy transfer from a long-lived donor to a nearby acceptor.

Assay [3] relates to phosphorylation of Histone H3. Nature of the assay: HeLa cell 1-hour phospho-histone assay. The class given is cell-based. The note with it: Homo sapiens, HeLa, 1 h, HeLa cells, 1 hour, average, read-out: pHH3 EC50_IP (Avg). The method in brief: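 HeLa cells were exposed to serially diluted compounds for 1 hour at 37 °C (0.5% DMSO final), then fixed, permeabilized and immunostained for phospho-histone H3 (Ser10) with Hoechst counterstain. High-content imaging scored the percentage of pHH3-positive cells.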

The mark [4] stands for this setting: given as numbers, unit inferred.

T2 sequence (Q96GD4 whole entry): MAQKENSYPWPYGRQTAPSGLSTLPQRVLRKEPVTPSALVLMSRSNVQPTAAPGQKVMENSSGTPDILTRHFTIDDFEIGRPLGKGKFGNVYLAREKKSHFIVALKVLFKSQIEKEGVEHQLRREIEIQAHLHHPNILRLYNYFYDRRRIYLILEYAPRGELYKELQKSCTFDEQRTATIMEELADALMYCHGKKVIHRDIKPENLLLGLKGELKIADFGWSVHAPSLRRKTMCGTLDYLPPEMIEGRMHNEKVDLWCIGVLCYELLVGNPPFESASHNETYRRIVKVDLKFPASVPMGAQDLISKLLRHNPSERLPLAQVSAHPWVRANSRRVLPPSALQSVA

For `Nc1n[nH]cc1-c1cccnc1Oc1ccc(Nc2nnc(-c3ccc(Cl)cc3)c3ccccc23)cc1` [compound 306, N-(4-((3-(3-amino-1H-pyrazol-4-yl)-2-pyridinyl)oxy)phenyl)-4-(4-chlorophenyl)-1-phthalazinamine], the IC50 in assay [1] (given as class symbols) and in assay [2] (given as class symbols) was at most 100 nM throughout. Also, the EC50 in assay [3] (given as class symbols) lay within 100 to 500 nM.

`Cc1csc(-c2nnc(Nc3ccc(Oc4ncccc4-c4c[nH]nc4N)cc3)c3ccccc23)c1` [compound 307, N-(4-((3-(3-amino-1H-pyrazol-4-yl)-2-pyridinyl)oxy)phenyl)-4-(4-methyl-2-thienyl)-1-phthalazinamine]: the IC50 in assay [1] (given as class symbols) and in assay [2] (given as class symbols) was at most 100 nM in each case. In assay [3] (given as class symbols), the EC50 was 100 to 500 nM.

Consider `Nc1n[nH]cc1-c1cccnc1Oc1ccc(Nc2nnc(-c3ccccc3)c3c2CCCC3)cc1` [compound 308, N-(4-((3-(3-amino-1H-pyrazol-4-yl)-2-pyridinyl)oxy)phenyl)-4-phenyl-5,6,7,8-tetrahydro-1-phthalazinamine], for which the IC50 in assay [1] (given as class symbols) and in assay [2] (given as class symbols) was at most 100 nM in each case. The EC50 in assay [3] (given as class symbols) was 500 to 2500 nM.

With `Cc1csc(-c2nnc(Nc3ccc(Oc4ncccc4-c4c[nH]nc4N)cc3)c3ccccc23)n1` [compound 309, N-(4-((3-(3-amino-1H-pyrazol-4-yl)-2-pyridinyl)oxy)phenyl)-4-(4-methyl-1,3-thiazol-2-yl)-1-phthalazinamine], the IC50 in assay [1] (given as class symbols) and in assay [2] (given as class symbols) was at most 100 nM each time. The EC50 in assay [3] (given as class symbols) was 500 to 2500 nM.

Turning to `Cc1csc(-c2nnc(Nc3ccc(Oc4ncccc4-c4ccnc(N)n4)cc3)c3ccccc23)n1` [compound 330, N-(4-((3-(2-amino-4-pyrimidinyl)-2-pyridinyi)oxy)phenyl)-4-(4-methyl-1,3-thiazol-2-yl)-1-phthalazinamine], the IC50 in assay [1] (given as class symbols) and in assay [2] (given as class symbols) was at most 100 nM throughout. For the same compound, the EC50 in assay [3] (given as class symbols) was at most 100 nM.

As to `Cc1csc(-c2nnc(Nc3ccc(Oc4ncccc4-c4ccnc(N)n4)nc3)c3ccccc23)c1` [compound 332, N-(6-((3-(2-amino-4-pyrimidinyl)-2-pyridinyl)oxy)-3-pyridinyl)-4-(4-methyl-2-thienyl)-1-phthalazinamine], the IC50 in assay [1] (setting [4]) was 5.2 nM; in assay [2] (setting [4]) it was 1.6 nM. In addition, the EC50 in assay [3] (setting [4]) is 3.3 nM.

For `CN1CCN(CCCNc2nccc(-c3cccnc3Oc3ccc(Nc4nnc(-c5ccccc5)c5ccccc45)cc3)n2)CC1` [compound 333, N-(4-((3-(2-((3-(4-methyl-1-piperazinyl)propyl)amino)-4-pyrimidinyl)-2-pyridinyl)oxy)phenyl)-4-phenyl-1-phthalazinamine], the IC50 in assay [1] (given as class symbols) and in assay [2] (given as class symbols) was at most 100 nM throughout. In addition, the EC50 in assay [3] (given as class symbols) was at most 100 nM.

Regarding `Cc1cc(N2CCCCC2)nnc1Nc1ccc(Oc2ncccc2-c2ccnc(N)n2)cc1` [compound 334, N-(4-((3-(2-amino-4-pyrimidinyl)-2-pyridinyl)oxy)phenyl)-4-methyl-6-(1-piperidinyl)-3-pyridazinamine], the IC50 in assay [1] (given as class symbols) was 100 to 500 nM; in assay [2] (given as class symbols), at most 100 nM. Moreover, in assay [3] (given as class symbols), the EC50 is 500 to 2500 nM.

As for `c1ccc(-c2nnc(Nc3ccc(Oc4ncccc4-c4ccnc(NCC5CCNCC5)n4)cc3)c3ccccc23)cc1` [compound 335, 4-phenyl-N-(4-((3-(2-((4-piperidinylmethyl)amino)-4-pyrimidinyl)-2-pyridinyl)oxy)phenyl)-1-phthalazinamine], the IC50 in assay [1] (given as class symbols) lay in the range of 500 to 2500 nM; in assay [2] (given as class symbols), 100 to 500 nM. Also, in assay [3] (given as class symbols), the EC50 was in the range of 500 to 2500 nM.

Consider `CN(C)Cc1ccc(-c2nnc(Nc3ccc(Oc4ncccc4-c4ccnc(N)n4)cc3)c3ccccc23)cc1` [compound 336, N-(4-((3-(2-amino-4-pyrimidinyl)-2-pyridinyl)oxy)phenyl)-4-(4-((dimethylamino)methyl)phenyl)-1-phthalazinamine], for which the IC50 in assay [1] (given as class symbols) lay within 500 to 2500 nM; in assay [2] (given as class symbols), 100 to 500 nM. Besides, in assay [3] (given as class symbols), the EC50 lay in the range of 500 to 2500 nM.

Take `OCC(O)CNc1nccc(-c2cccnc2Oc2ccc(Nc3nnc(-c4ccccc4)c4ccccc34)cc2)n1` (stereo not drawn) [compound 337, 3-((4-(2-((4-((4-phenyl-1-phthalazinyl)amino)phenyl)oxy)-3-pyridinyl)-2-pyrimidinyl)amino)-1,2-propanediol]: the IC50 in assay [1] (given as class symbols) and in assay [2] (given as class symbols) was at most 100 nM throughout. Also, in assay [3] (given as class symbols), the EC50 lay within 100 to 500 nM.

Turning to `CN(C)CCCCNc1nccc(-c2cccnc2Oc2ccc(Nc3nnc(-c4ccccc4)c4ccccc34)cc2)n1` [compound 338, N,N-dimethyl-N'-(4-(2-((4-((4-phenyl-1-phthalazinyl)amino)phenyl)oxy)-3-pyridinyl)-2-pyrimidinyl)-1,4-butanediamine], the IC50 in assay [1] (given as class symbols) and in assay [2] (given as class symbols) was at most 100 nM in each case. In addition, the EC50 in assay [3] (given as class symbols) was at most 100 nM.

For the compound `OCCCNc1nccc(-c2cccnc2Oc2ccc(Nc3nnc(-c4ccccc4)c4ccccc34)cc2)n1` [compound 339, 3-((4-(2-((4-((4-phenyl-1-phthalazinyl)amino)phenyl)oxy)-3-pyridinyl)-2-pyrimidinyl)amino)-1-propanol], the IC50 in assay [1] (given as class symbols) and in assay [2] (given as class symbols) was at most 100 nM each time. The EC50 in assay [3] (given as class symbols) was 100 to 500 nM.

With `c1ccc(-c2nnc(Nc3ccc(Oc4ncccc4-c4ccnc(NCCCN5CCNCC5)n4)cc3)c3ccccc23)cc1` [compound 340, 4-phenyl-N-(4-((3-(2-((3-(1-piperazinyl)propyl)amino)-4-pyrimidinyl)-2-pyridinyl)oxy)phenyl)-1-phthalazinamine], the IC50 in assay [1] (given as class symbols) and in assay [2] (given as class symbols) was at most 100 nM each time. The EC50 in assay [3] (given as class symbols) was 100 to 500 nM.

`OCCN(CCO)CCCNc1nccc(-c2cccnc2Oc2ccc(Nc3nnc(-c4ccccc4)c4ccccc34)cc2)n1` [compound 341, 2,2'-((3-((4-(2-((4-((4-phenyl-1-phthalazinyl)amino)phenyl)oxy)-3-pyridinyl)-2-pyrimidinyl)amino)propyl)imino)diethanol]: the IC50 in assay [1] (given as class symbols) was 100 to 500 nM; in assay [2] (given as class symbols), at most 100 nM. Besides, the EC50 in assay [3] (given as class symbols) was in the range of 100 to 500 nM.

For `Nc1nccc(-c2cccnc2Oc2ccc(Nc3nnc(-c4cccc(CO)c4)c4ccccc34)cc2)n1` [compound 342, (3-(4-((4-((3-(2-amino-4-pyrimidinyl)-2-pyridinyl)oxy)phenyl)amino)-1-phthalazinyl)phenyl)methanol], the IC50 in assay [1] (given as class symbols) and in assay [2] (given as class symbols) was at most 100 nM in each case. The EC50 in assay [3] (given as class symbols) fell in the range of 100 to 500 nM.

As for `Nc1nccc(-c2cccnc2Oc2ccc(Nc3nnc(-c4cccc(O)c4)c4ccccc34)cc2)n1` [compound 343, 3-(4-((4-((3-(2-amino-4-pyrimidinyl)-2-pyridinyl)oxy)phenyl)amino)-1-phthalazinyl)phenol], the IC50 in assay [1] (given as class symbols) and in assay [2] (given as class symbols) was at most 100 nM in each case. Besides, the EC50 in assay [3] (given as class symbols) was at most 100 nM.

With `Nc1nccc(-c2cccnc2Oc2ccc(Nc3nnc(-c4cccc(CCCO)c4)c4ccccc34)cc2)n1` [compound 344, 3-(3-(4-((4-((3-(2-amino-4-pyrimidinyl)-2-pyridinyl)oxy)phenyl)amino)-1-phthalazinyl)phenyl)-1-propanol], the IC50 in assay [1] (given as class symbols) and in assay [2] (given as class symbols) was at most 100 nM throughout. Further, in assay [3] (given as class symbols), the EC50 was at most 100 nM.

Take `Cc1csc(-c2nnc(Nc3ccc(Oc4ncccc4-c4ccnc(N)c4)cc3)c3ccccc23)n1` [compound 345, 2-((4-((4-(4-methyl-1,3-thiazol-2-yl)-1-phthalazinyl)amino)phenyl)oxy)-3,4'-bipyridin-2'-amine]: the IC50 in assay [1] (given as class symbols) and in assay [2] (given as class symbols) was at most 100 nM each time. In addition, the EC50 in assay [3] (given as class symbols) fell in the range of 100 to 500 nM.

With `CC(O)c1cccc(-c2nnc(Nc3ccc(Oc4ncccc4-c4ccnc(N)n4)cc3)c3ccccc23)c1` (stereo not drawn) [compound 346, 1-(3-(4-((4-((3-(2-amino-4-pyrimidinyl)-2-pyridinyl)oxy)phenyl)amino)-1-phthalazinyl)phenyl)ethanol], the IC50 in assay [1] (given as class symbols) and in assay [2] (given as class symbols) was at most 100 nM each time. In assay [3] (given as class symbols), the EC50 fell in the range of 100 to 500 nM.

As to `CCN(CCO)CCCCNc1nccc(-c2cccnc2Oc2ccc(Nc3nnc(-c4ccccc4)c4ccccc34)cc2)n1` [compound 347, 2-(ethyl(4-((4-(2-((4-((4-phenyl-1-phthalazinyl)amino)phenyl)oxy)-3-pyridinyl)-2-pyrimidinyl)amino)butyl)amino)ethanol], the IC50 in assay [1] (given as class symbols) and in assay [2] (given as class symbols) was at most 100 nM each time. In assay [3] (given as class symbols), the EC50 was at most 100 nM.
